Reference: paper PMC11440465, “Detection of Sulfonamide Antibiotics Using an Elastic Hydrogel Microparticles-Based Optical Biosensor” (ACS Applied Materials & Interfaces, 2024)

Target: T1, Dihydropteroate synthase (DHPS) (Streptococcus pneumoniae, UniProt P05382)
T1 construct: gene sulA; dimer; immobilized on PEMA or POMA coated glass
Test: competitive hydrogel microparticle (SCP) binding assay, RICM contact area
Conditions: DHPS immobilized on PEMA-coated glass; 0.1 M MOPS pH 6.0, 5 mM MgCl2, 600 uM pyrophosphate, room temperature; competes with SMX derivative on microparticles

T1 sequence (P05382 whole entry): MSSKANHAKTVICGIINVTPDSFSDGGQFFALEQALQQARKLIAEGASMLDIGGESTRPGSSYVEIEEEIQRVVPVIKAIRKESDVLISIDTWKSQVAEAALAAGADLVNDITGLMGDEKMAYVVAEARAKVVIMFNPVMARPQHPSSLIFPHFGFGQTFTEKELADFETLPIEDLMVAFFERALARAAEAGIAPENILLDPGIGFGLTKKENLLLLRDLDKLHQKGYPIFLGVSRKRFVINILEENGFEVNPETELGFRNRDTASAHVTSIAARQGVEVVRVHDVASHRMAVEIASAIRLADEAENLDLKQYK

For `Cc1cc(NS(=O)(=O)c2ccc(N)cc2)no1` [SMX, sulfamethoxazole], the “% decrease of SCP contact area diameter at 1 mM” value was over 50%.
